These results are taken from patent publication US9724335B2, “Solid dispersions of insoluble drug and preparation method thereof” (SK BIOPHARMACEUTICALS CO., LTD., priority 2012, dated 2017).

In brackets after ≈: the same amount, converted by molar mass.

In general, solubility refers to how much of the substance goes into solution per volume.

A short description of data set [1]: Solubility of CBI in several solvents (24 h stirring at room temperature, HPLC). The data set is classed as physicochemical. Conditions: for solubility at 24 h: organic solvent or mixture, thermodynamic from solid. Here is the method:
Under several solvent conditions—i.e., distilled water, methanol, ethanol, acetone and diethyl ether—the solubility of CBI was measured. Specifically, about 5 to 40 mg of CBI was introduced into a 1.5 mL microtube, and 1 mL of the test solvent was added thereto. The mixture was slowly stirred in a rotary stirrer for 24 h under the condition of room temperature until solvent equilibrium was reached. After stirring, the suspended solution was filtered through a 0.45 micrometer membrane filter. The supernatant was collected and diluted by two-fold with the same amount of diluent for analysis. The CBI concentration was analyzed by using high-performance liquid chromatography. The column used in the present experiment was a […], 5 μm C18 column, and the mobile phase was a mixture of 35% acetonitrile, 20% methanol and 45% distilled water by volume. The flow rate was 1.0 mL/min, and the detection was performed at 255 nm. The results are shown in Table 11 wherein the values are represented as an average of three repeats ±standard deviation.

Data set [2] can be described thus: Pharmacokinetic test of the solid dispersion for a Beagle dog (oral, plasma CBI by LC-MS/MS). Conditions: oral 40 mg/kg in gelatin capsule, all the time zones (0-24 h), listed as CBI powder. It is filed as in vivo. Here is the method:
Just before the test, three Beagle dogs were weighed respectively. The solid dispersion of Example 3 as the test group and CBI powder as the control group each weighed in the amount corresponding to 40 mg/kg, were filled into a gelatin capsule and then orally administered. Just before and at 0.5, 1, 2, 4, 6, 8 and 24 h after administration, the blood was collected from the popliteal vein. The plasma was separated from the blood sample by centrifugation and stored/kept at −20° C. until analysis thereof. For the analysis, the plasma sample (0.5 ml) was correctly transferred to a 1.5 ml polypropylene centrifuge tube. This mixture was vortexed for 30 sec and centrifuged at 400 rpm for 10 min. The concentration of CBI in the plasma was analyzed by LC-MS/MS. […] The peak was detected by MRM (multiple reaction monitoring) method using triple-quadrupole mass spectrometry. The ionization was analyzed in the positive mode by using electrospray ionization (ESI) wherein the ion spray temperature was set up at 500° C. In the MRM method, the protonated molecular ions of CBI and the internal standard compound were monitored to have the m/z values of 325.1 and 268.0, and the product ions thus produced were monitored to have the m/z values of 91.0 and 155.0, respectively. The area under the concentration-time curve (AUC) of the drug in the plasma was calculated by the linear trapezoidal method.

In the case of `NC(=O)OCc1cc(-c2ccc(OCc3ccccc3)cc2)no1` [CBI, carbamic acid 3-(4-benzyloxy-phenyl)-isoxazol-5-ylmethyl ester], the Solubility entry in data set [1] (Distilled Water) is reported as “Not detected”. Moreover, the solubility at 24 h in data set [1] (Acetone) stood at 24800 µg/mL (≈ 76.5 mM); in data set [1] (Diethyl Ether), 700 µg/mL (≈ 2.16 mM); in data set [1] (Ethanol) it was 1500 µg/mL (≈ 4.62 mM); in data set [1] (Methanol), 2500 µg/mL (≈ 7.71 mM). For the same molecule, the “Blood CBI Concentration” value in data set [2] is on record as “below the sensitivity for quantification”.
